According to patent US20080275058A1, “N-Substituted-1H-Quinoline-2,4-Diones, Preparation Method Thereof, And Pharmaceutical Composition Containing The Same” (KOREA RESEARCH INSTITUTE OF CHEMICAL TECHNOLOGY, priority 2005, published 2008):
Like-named read-outs stand apart in the source and are kept apart here.

Legend:
hD2L = target: T1, hD2L (Homo sapiens, UniProt P14416); assay: Radioligand binding, dopamine D2 ([3H]spiperone); conditions: Table 4; [3H]spiperone 1 nM; read-out: Binding affinity, IC50 (nM) D2
T1 construct: purchased BioSignal Packard Inc., Montreal, Canada
T1 sequence (P14416 whole entry): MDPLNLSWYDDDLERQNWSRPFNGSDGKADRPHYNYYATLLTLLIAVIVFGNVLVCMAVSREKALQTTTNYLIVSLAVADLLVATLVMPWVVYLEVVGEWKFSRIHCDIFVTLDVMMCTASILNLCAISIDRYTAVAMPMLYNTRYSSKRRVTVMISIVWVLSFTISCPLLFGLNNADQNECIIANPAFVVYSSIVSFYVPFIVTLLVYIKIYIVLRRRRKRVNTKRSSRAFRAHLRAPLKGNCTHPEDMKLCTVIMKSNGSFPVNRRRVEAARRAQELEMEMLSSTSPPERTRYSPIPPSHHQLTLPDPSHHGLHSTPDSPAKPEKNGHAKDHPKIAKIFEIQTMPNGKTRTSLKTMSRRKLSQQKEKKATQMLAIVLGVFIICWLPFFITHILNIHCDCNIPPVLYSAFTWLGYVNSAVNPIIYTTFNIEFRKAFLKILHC
Procedure, shortened: (§1)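 Membrane competition binding with [3H]spiperone (1 nM) for hD2L and hD3, or [3H]YM-09151-2 (0.06 nM) for hD4.2, each in receptor-specific Tris-HCl pH 7.4 buffer containing Mg2+/EDTA (D3 and D4 also with K+, Ca2+; D3 with 120 mM NaCl). Compounds were tested at 7-8 concentrations in duplicate, and IC50 was derived by nonlinear regression across three assays.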

5-HT2c = target: T2, 5-HT2c (Homo sapiens, UniProt P28335); assay: Radioligand binding, 5-HT2c ([3H]Mesulergine); conditions: Table 4; [3H]Mesulergine 1 nM; read-out: Binding affinity, IC50 (nM) 5-HT2c
T2 construct: purchased Euroscreen/BioSignal Packard Inc
T2 sequence (P28335 33-458): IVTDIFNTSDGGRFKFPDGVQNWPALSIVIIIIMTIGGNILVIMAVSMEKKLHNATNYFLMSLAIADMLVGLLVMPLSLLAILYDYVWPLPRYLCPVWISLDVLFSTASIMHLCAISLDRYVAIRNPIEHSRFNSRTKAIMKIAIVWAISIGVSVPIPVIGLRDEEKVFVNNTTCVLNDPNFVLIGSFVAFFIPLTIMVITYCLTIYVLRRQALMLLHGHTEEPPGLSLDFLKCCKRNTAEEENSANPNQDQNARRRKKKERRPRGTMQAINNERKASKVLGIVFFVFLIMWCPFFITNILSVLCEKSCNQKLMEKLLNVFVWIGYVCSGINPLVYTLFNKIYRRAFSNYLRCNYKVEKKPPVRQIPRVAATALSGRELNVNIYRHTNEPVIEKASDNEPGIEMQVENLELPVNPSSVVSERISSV

[1] = target: T3, Human serotonin 5-HT6 receptor (Homo sapiens, UniProt P50406); assay: [3H]LSD binding assay on cloned 5-HT6 receptor membranes; conditions: for binding affinity at 5-HT6 receptor labeled by [3H]LSD, in words: comment on Table 2
T3 construct: made in house; host or cells: insect Sf21 cells (baculovirus vector BacPAK8)
T3 sequence (P50406 whole entry): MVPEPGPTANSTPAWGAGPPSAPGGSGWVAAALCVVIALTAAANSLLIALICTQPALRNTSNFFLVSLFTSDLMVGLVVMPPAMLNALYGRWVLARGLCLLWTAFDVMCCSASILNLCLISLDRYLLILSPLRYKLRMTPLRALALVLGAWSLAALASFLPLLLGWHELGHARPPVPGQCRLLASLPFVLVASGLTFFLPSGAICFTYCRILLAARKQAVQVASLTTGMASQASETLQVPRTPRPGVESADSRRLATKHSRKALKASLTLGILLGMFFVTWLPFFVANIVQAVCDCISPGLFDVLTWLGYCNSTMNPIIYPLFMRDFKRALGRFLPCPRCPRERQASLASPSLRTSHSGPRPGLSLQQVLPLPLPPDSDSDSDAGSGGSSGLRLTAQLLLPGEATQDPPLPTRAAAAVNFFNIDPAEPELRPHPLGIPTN

Rotarod deficit in mice = assay type: in vivo, mouse; conditions: mouse, in vivo, po, unit printed as image, read-out: TD50 (median neurotoxic dose)
Experimental: (§2) The mouse was placed on a 1 inch diameter knurled plastic rod rotating at 6 rpm (Ugo-Basile, Milano, Italy), and the rotarod deficit (%) was obtained by counting the number of animals fallen from the rotating rod within 1 min [Dunham et al., 1957] at 60, 90 and 120 min after the injection of the compound according to the invention(200, 300 or 400 ? ). […] The compounds of the examples were suspended in 3% Tween 80 solution, and were administered (p.o.) 60 min before the testing.

mice = assay: Rotarod deficit in mice; assay type: in vivo, mouse
Experimental: as §2

5-HT7 = target: T4, 5-HT7 (Homo sapiens, UniProt P34969); assay: Radioligand binding, 5-HT7 ([3H]LSD); conditions: Table 4; [3H]LSD 3 nM; read-out: Binding affinity, IC50 (nM) 5-HT7
T4 construct: purchased Euroscreen/BioSignal Packard Inc
T4 sequence (P34969 whole entry): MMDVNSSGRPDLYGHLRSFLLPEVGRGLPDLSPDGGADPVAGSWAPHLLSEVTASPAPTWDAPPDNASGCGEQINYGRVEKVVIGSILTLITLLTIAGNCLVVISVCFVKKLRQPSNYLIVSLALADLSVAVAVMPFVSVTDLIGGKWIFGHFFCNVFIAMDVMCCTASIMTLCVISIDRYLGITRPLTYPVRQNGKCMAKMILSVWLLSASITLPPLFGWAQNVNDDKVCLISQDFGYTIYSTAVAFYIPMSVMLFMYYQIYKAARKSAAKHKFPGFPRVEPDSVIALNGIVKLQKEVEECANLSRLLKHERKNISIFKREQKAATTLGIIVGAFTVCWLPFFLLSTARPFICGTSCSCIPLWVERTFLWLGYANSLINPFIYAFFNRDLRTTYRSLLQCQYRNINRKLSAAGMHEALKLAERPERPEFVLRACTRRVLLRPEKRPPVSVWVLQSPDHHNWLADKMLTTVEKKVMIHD

5-HT2a = target: T5, 5-HT2a (Homo sapiens, UniProt P28223); assay: Radioligand binding, 5-HT2a ([3H]Ketanserin); conditions: Table 4; [3H]Ketanserin 1 nM; read-out: Binding affinity, IC50 (nM) 5-HT2a
T5 construct: purchased Euroscreen/BioSignal Packard Inc
T5 sequence (P28223 whole entry): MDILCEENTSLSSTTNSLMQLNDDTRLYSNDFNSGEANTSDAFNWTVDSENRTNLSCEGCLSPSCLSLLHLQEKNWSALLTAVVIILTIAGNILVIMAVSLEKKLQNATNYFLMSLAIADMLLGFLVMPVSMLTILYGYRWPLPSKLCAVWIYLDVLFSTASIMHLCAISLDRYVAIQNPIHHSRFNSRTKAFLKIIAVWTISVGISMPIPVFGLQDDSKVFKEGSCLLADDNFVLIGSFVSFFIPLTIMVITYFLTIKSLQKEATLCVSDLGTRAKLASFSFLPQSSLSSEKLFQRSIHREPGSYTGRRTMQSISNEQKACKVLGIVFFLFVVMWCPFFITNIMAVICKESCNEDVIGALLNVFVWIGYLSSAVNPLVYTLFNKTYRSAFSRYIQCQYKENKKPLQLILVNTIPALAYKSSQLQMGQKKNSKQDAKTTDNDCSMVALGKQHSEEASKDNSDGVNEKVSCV

D1 = D1 (Homo sapiens, UniProt P21728); assay: Radioligand binding, dopamine D1; conditions: Table 4; read-out: Binding affinity, IC50 (nM) D1
Sequence of D1 (P21728 whole entry): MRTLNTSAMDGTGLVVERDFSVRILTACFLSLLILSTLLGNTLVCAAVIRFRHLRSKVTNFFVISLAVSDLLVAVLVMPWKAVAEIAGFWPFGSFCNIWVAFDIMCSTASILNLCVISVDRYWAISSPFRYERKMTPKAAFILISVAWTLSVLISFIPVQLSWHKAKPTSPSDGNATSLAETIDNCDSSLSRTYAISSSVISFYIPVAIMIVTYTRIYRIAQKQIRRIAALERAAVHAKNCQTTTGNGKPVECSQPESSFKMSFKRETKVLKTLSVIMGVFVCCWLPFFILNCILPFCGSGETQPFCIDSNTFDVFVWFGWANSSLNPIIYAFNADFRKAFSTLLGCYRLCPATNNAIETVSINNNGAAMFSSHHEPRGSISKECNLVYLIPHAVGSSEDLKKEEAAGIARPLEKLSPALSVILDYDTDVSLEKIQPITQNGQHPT

hD4.2 receptor = target: T6, hD4.2 receptor (Homo sapiens, UniProt P21917, DEL265-296); assay: Radioligand binding, dopamine D4 ([3H]YM-09151-2); conditions: Table 4; [3H]YM-09151-2 0.06 nM; read-out: Binding affinity, IC50 (nM) D4
T6 construct: purchased BioSignal Packard Inc., Montreal, Canada
T6 sequence (P21917 with tags, fused parts or gaps DEL265-296): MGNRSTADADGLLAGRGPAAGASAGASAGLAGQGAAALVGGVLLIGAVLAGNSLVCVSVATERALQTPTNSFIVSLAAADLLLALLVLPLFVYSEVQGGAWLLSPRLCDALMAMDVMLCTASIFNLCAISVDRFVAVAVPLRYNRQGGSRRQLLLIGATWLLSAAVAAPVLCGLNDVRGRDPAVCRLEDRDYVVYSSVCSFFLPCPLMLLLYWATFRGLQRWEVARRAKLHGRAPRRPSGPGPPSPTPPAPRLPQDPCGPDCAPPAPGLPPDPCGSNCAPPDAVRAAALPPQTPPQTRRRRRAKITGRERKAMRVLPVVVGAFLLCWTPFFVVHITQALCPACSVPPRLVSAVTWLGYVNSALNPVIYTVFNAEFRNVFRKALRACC
Procedure, shortened: as §1

hD3 = target: T7, hD3 (Homo sapiens, UniProt P35462); assay: Radioligand binding, dopamine D3 ([3H]spiperone); conditions: Table 4; [3H]spiperone 1 nM; read-out: Binding affinity, IC50 (nM) D3
T7 construct: purchased BioSignal Packard Inc., Montreal, Canada
T7 sequence (P35462 whole entry): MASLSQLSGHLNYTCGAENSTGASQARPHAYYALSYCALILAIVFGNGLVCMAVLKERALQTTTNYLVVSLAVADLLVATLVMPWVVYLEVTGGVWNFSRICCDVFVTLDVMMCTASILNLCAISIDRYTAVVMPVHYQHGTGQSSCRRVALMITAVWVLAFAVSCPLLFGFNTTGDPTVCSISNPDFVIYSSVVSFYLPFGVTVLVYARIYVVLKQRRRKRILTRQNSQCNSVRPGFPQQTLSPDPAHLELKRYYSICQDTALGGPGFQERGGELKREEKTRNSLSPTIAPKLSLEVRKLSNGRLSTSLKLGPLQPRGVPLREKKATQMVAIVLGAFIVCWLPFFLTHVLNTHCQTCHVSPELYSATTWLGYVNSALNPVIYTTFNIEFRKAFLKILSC
Procedure, shortened: as §1

5-HT1a = target: T8, 5-HT1a (Homo sapiens, UniProt P08908); assay: Radioligand binding, 5-HT1a ([3H]8-OH-DPAT); conditions: Table 4; [3H]8-OH-DPAT 0.5 nM; read-out: Binding affinity, IC50 (nM) 5-HT1a
T8 construct: purchased Euroscreen/BioSignal Packard Inc
T8 sequence (P08908 1-422): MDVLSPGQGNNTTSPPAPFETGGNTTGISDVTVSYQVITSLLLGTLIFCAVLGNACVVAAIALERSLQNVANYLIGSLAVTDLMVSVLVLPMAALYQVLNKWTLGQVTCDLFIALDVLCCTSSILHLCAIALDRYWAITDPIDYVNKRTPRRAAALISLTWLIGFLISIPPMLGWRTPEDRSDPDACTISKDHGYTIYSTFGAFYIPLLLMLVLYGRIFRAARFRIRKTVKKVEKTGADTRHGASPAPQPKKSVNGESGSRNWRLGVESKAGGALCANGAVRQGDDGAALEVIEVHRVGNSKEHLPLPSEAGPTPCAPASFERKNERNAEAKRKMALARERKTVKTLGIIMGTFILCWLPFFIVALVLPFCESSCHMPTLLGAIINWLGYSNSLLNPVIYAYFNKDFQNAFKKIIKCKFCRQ
Procedure, shortened: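 Binding was measured on commercial receptor membrane preparations, following the membrane supplier's own test protocol.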

[2] = Table 2, 1.87 nM [3H]LSD, 37 C, 60 min, read-out: IC50 (nM), binding affinity to the 5-HT6 receptor
[3] = Table 4, read-out: Binding affinity, IC50 (nM) 5-HT6

Row | SMILES | IC50 (hD2L) [nM] | IC50 (5-HT2c) [nM] | IC50 [1, 2] [nM] | IC50 [1, 3] [nM] | TD50 at 120 min (Rotarod deficit in mice) [mg/kg] | Rotarod deficit (%) (mice; 200 p.o. (dose unit not given)) | Rotarod deficit (%) (mice; 300 p.o. (dose unit not given)) | Rotarod deficit (%) (mice; 400 p.o. (dose unit not given)) | IC50 (5-HT7) [nM] | IC50 (5-HT2a) [nM] | IC50 (D1) [nM] | melting point [°C] | IC50 (hD4.2 receptor) [nM] | IC50 (hD3) [nM] | IC50 (5-HT1a) [nM] | binding affinity at 5-HT6 receptor labeled by [3H]LSD, in words [1]
1 | CN1CCN(c2cc(Cl)cc3c2C(=O)C(C)(c2ccc(OCc4ccccc4)c(Br)c2)C(=O)N3Cc2ccccc2)CC1 (stereo not shown) [Example 12, 1-Benzyl-3-(4-benzyloxy-3-bromo-phenyl)-7-chloro-3-methyl-5-(4-methyl-piperazin-1-yl)-1H-quinoline-2,4-dione] | 6450 | 1290 | 9.2 | 9.2 | > 400 | 0 | 0 | 0 | 136 | 95 | 1240 | 95 to 97 | > 10000 | 153 | 2520 | 
2 | CC1(c2ccc(I)cc2)C(=O)c2c(N3CCNCC3)cc(Cl)cc2N(Cc2ccccc2)C1=O (stereo not shown) [Example 21, 1-Benzyl-7-chloro-3-(4-iodo-phenyl)-3-methyl-5-piperazin-1-yl-1H-quinoline-2,4-dione] | 1640 | 1810 | 6.9 | 6.9 | > 400 | 0 | 0 | 0 | 3340 | 553 | 1620 | 176 to 177 | 5870 | 1050 | 468 | 
3 | COc1ccc([C@@]2(C)C(=O)c3c(N4CCNCC4)cc(Cl)cc3N(Cc3ccccc3)C2=O)cc1 [Example 13-1, (S)-1-Benzyl-7-chloro-3-(4-methoxy-phenyl)-3-methyl-5-piperazin-1-yl-1H-quinoline-2,4-dione] | > 10000 | 7740 | 1.4 | 1.4 | > 400 | 0 | 0 | 0 | 5850 | 2510 | 6150 |  | > 10000 | 8930 | 5430 | significant affinities
4 | C[C@@]1(c2ccc(O)cc2)C(=O)c2c(N3CCNCC3)cc(Cl)cc2N(Cc2ccccc2)C1=O [Example 14-2, (R)-1-Benzyl-7-chloro-3-(4-hydroxy-phenyl)-3-methyl-5-piperazin-1-yl-1H-quinoline-2,4-dione] | > 10000 | > 10000 | 13.3 | 13.3 | > 400 | 0 | 0 | 0 | 9240 | 6380 | 1540 |  | > 10000 | 1760 | 5890 | 
5 | C[C@]1(c2ccc(O)cc2)C(=O)c2c(N3CCNCC3)cc(Cl)cc2N(Cc2ccccc2)C1=O [Example 14-1, (S)-1-Benzyl-7-chloro-3-(4-hydroxy-phenyl)-3-methyl-5-piperazin-1-yl-1H-quinoline-2,4-dione] | > 10000 | > 10000 | 1.9 | 1.9 | > 400 | 0 | 0 | 0 | 9860 | 2000 | 7070 |  | > 10000 | 7650 | 7950 | significant affinities
6 | COc1ccc([C@]2(C)C(=O)c3c(N4CCNCC4)cc(Cl)cc3N(Cc3ccccc3)C2=O)cc1 [Example 13-2, (R)-1-Benzyl-7-chloro-3-(4-methoxy-phenyl)-3-methyl-5-piperazin-1-yl-1H-quinoline-2,4-dione] | > 10000 | 9740 | 9 | 9 | > 400 | 0 | 0 | 0 | 9520 | 2840 | 5210 |  | > 10000 | 2580 | 3280 | 
7 | CC1(c2ccccc2)C(=O)c2c(N3CCNCC3)cc(Cl)cc2N(Cc2ccccc2)C1=O (stereo not shown) [Example 22, 1-Benzyl-7-chloro-3-methyl-3-phenyl-5-piperazin-1-yl-1H-quinoline-2,4-dione] | 2450 | 1830 | 2.7 | 2.3 | > 400 | 0 | 0 | 0 | 5070 | 2900 | 5140 |  | > 10000 | 1810 | 3910 | 
8 | COc1ccc(C2(C)C(=O)c3c(N4CCNCC4)cc(Cl)cc3N(Cc3cccc([N+](=O)[O-])c3)C2=O)cc1 (stereo not shown) [Example 23, 7-Chloro-3-(4-methoxy-phenyl)-3-methyl-1-(3-nitro-benzyl)-5-piperazin-1-yl-1H quinoline-2,4-dione] | 6930 | 8400 | 2.7 | 16.7 |  |  |  |  | 8450 | 6480 | 7640 | 153 to 154 | 9090 | 9650 | 9010 | 
9 | CN1CCN(c2cc(Cl)cc3c2C(=O)C(C)(c2ccc(O)cc2)C(=O)N3Cc2cccc(N)c2)CC1 (stereo not shown) [Example 10, 1-(3-Amino-benzyl)-7-chloro-3-(4-hydroxy-phenyl)-3-methyl-5-(4-methyl-piperazin-1-yl)-1H-quinoline-2,4-dione] | > 10000 | > 10000 | 6.2 | 6.2 | > 400 | 0 | 0 | 0 | > 10000 | > 10000 | > 10000 |  | > 10000 | 5370 | > 10000 | 
